Patent publication US20090156518A1, “STABLE PHARMACEUTICAL COMPOSITION COMPRISING BETA-LACTAM ANTIBIOTIC AND BUFFER” (priority 2006, published 2009)
Marks after values point to notes of the source that are not given here.

Assay: amounts of β-lactam antibiotic, β-lactamase inhibitor (C18 reverse-phase LC, UV-VIS) and aminoglycoside (HPLC-ELSD) in solution over time
Format: physicochemical

amount of component as percentage with respect to the amount at the initial time (Example 8: freeze-dried ceftriaxone sodium, tazobactam sodium, gentamicin sulfate, citrate pH 6.75, 2.5% fructose, 7 days 0° C., in 100 mL water, Time 0 h): 102.2% | amount of component as percentage with respect to the amount at the initial time (Example 8: freeze-dried ceftriaxone sodium, tazobactam sodium, gentamicin sulfate, citrate pH 6.75, 2.5% fructose, 7 days 0° C., in 100 mL water, Time 1 h): 97.53% | amount of component as percentage with respect to the amount at the initial time (Example 8: freeze-dried ceftriaxone sodium, tazobactam sodium, gentamicin sulfate, citrate pH 6.75, 2.5% fructose, 7 days 0° C., in 100 mL water, Time 2 h): 94.16% | amount of component as percentage with respect to the amount at the initial time (Example 8: freeze-dried ceftriaxone sodium, tazobactam sodium, gentamicin sulfate, citrate pH 6.75, 2.5% fructose, 7 days 0° C., in 100 mL water, Time 4 h): 94.58% | amount of component as percentage with respect to the amount at the initial time (Example 8: freeze-dried ceftriaxone sodium, tazobactam sodium, gentamicin sulfate, citrate pH 6.75, 2.5% fructose, 7 days 0° C., in 100 mL water, Time 6 h): 95.45% | amount of component as percentage with respect to the amount at the initial time (Example 8: freeze-dried ceftriaxone sodium, tazobactam sodium, gentamicin sulfate, citrate pH 6.75, 2.5% fructose, 7 days 0° C., in 100 mL water, Time 8 h): 94.44% | amount of component as percentage with respect to the amount at the initial time (Example 16: 10 mL of the final solution (cefoperazone sodium, tazobactam sodium, etimicin sulfate, citrate) + gentamicin sulfate 16 mg, Time 0 h): 93.36% | amount of component as percentage with respect to the amount at the initial time (Example 16: 10 mL of the final solution (cefoperazone sodium, tazobactam sodium, etimicin sulfate, citrate) + gentamicin sulfate 16 mg, Time 1 h): 104.8% | amount of component as percentage with respect to the amount at the initial time (Example 16: 10 mL of the final solution (cefoperazone sodium, tazobactam sodium, etimicin sulfate, citrate) + gentamicin sulfate 16 mg, Time 2 h): 100.0% | amount of component as percentage with respect to the amount at the initial time (Example 16: 10 mL of the final solution (cefoperazone sodium, tazobactam sodium, etimicin sulfate, citrate) + gentamicin sulfate 16 mg, Time 4 h): 96.58* % | amount of component as percentage with respect to the amount at the initial time (Example 16: 10 mL of the final solution (cefoperazone sodium, tazobactam sodium, etimicin sulfate, citrate) + gentamicin sulfate 16 mg, Time 6 h): 106.1* % | amount of component as percentage with respect to the amount at the initial time (Example 16: 10 mL of the final solution (cefoperazone sodium, tazobactam sodium, etimicin sulfate, citrate) + gentamicin sulfate 16 mg, Time 8 h): 107.1* % | amount of component as percentage with respect to the amount at the initial time (Example 16: freeze-dried cefoperazone sodium 4 g, tazobactam sodium 1 g, citrate pH 6.75, 7 days 0° C., in 100 mL water, 10 mL + etimicin sulfate 20 mg, room temperature, Time 0 h): 98.77% | amount of component as percentage with respect to the amount at the initial time (Example 16: freeze-dried cefoperazone sodium 4 g, tazobactam sodium 1 g, citrate pH 6.75, 7 days 0° C., in 100 mL water, 10 mL + etimicin sulfate 20 mg, room temperature, Time 1 h): 108.2% | amount of component as percentage with respect to the amount at the initial time (Example 16: freeze-dried cefoperazone sodium 4 g, tazobactam sodium 1 g, citrate pH 6.75, 7 days 0° C., in 100 mL water, 10 mL + etimicin sulfate 20 mg, room temperature, Time 2 h): 110.8% | amount of component as percentage with respect to the amount at the initial time (Example 16: freeze-dried cefoperazone sodium 4 g, tazobactam sodium 1 g, citrate pH 6.75, 7 days 0° C., in 100 mL water, 10 mL + etimicin sulfate 20 mg, room temperature, Time 4 h): 97.39% | amount of component as percentage with respect to the amount at the initial time (Example 16: freeze-dried cefoperazone sodium 4 g, tazobactam sodium 1 g, citrate pH 6.75, 7 days 0° C., in 100 mL water, 10 mL + etimicin sulfate 20 mg, room temperature, Time 6 h): 106.3% | amount of component as percentage with respect to the amount at the initial time (Example 16: freeze-dried cefoperazone sodium 4 g, tazobactam sodium 1 g, citrate pH 6.75, 7 days 0° C., in 100 mL water, 10 mL + etimicin sulfate 20 mg, room temperature, Time 8 h): 106.3% | amount of component as percentage with respect to the amount at the initial time (Example 20: ceftriaxone sodium 2 g, tazobactam sodium 2 g, gentamicin sulfate 160 mg, citrate pH 6.75, 200 mL water, room temperature, Time 0 h): 102.2% | amount of component as percentage with respect to the amount at the initial time (Example 20: ceftriaxone sodium 2 g, tazobactam sodium 2 g, gentamicin sulfate 160 mg, citrate pH 6.75, 200 mL water, room temperature, Time 1 h): 97.53% | amount of component as percentage with respect to the amount at the initial time (Example 20: ceftriaxone sodium 2 g, tazobactam sodium 2 g, gentamicin sulfate 160 mg, citrate pH 6.75, 200 mL water, room temperature, Time 2 h): 94.16% | amount of component as percentage with respect to the amount at the initial time (Example 20: ceftriaxone sodium 2 g, tazobactam sodium 2 g, gentamicin sulfate 160 mg, citrate pH 6.75, 200 mL water, room temperature, Time 4 h): 94.58% | amount of component as percentage with respect to the amount at the initial time (Example 20: ceftriaxone sodium 2 g, tazobactam sodium 2 g, gentamicin sulfate 160 mg, citrate pH 6.75, 200 mL water, room temperature, Time 6 h): 95.45% | amount of component as percentage with respect to the amount at the initial time (Example 20: ceftriaxone sodium 2 g, tazobactam sodium 2 g, gentamicin sulfate 160 mg, citrate pH 6.75, 200 mL water, room temperature, Time 8 h): 94.44%
Compound: C[C@]1(Cn2ccnn2)[C@H](C(=O)O)N2C(=O)C[C@H]2S1(=O)=O [Tazobactam sodium]
